ChEMBL document CHEMBL1130785, “A labeled guanidine ligand for studying sweet taste” (Bioorg Med Chem Lett, 1998)

Test: The compound was evaluated for binding affinity towards monoclonal antibody NC10.14 using competitive radioimmunoassay.

SMILES: N#Cc1ccc(N/C(=N\CC(=O)O)NC(c2ccccc2)c2ccccc2)cc1
- Kd: 18 nM
